The target in assay [1] is T1, KRAS(G12D) (Homo sapiens, UniProt P01116, G12D).
T1 construct: knocking in an ED fragment (and the relevant mutation in KRAS) into the KRAS locus by CRISPR technology; ED tag (ePL, enhanced ProLink); host or cells: A549 (SPRINTer A549 KRAS G12D, CRISPR knock-in)
The assay is described as follows: targeted protein degradation assay (EFC). As to conditions: A549 ED-KRAS(G12D) cells, 18 h, top dose 10 μM. In kind it is cell-based. Here is the method:
(§1) We tested the KRAS(G12C)-specific protein degrader LC2 (Figure 1C) with our three KRAS cell lines in the developed protein degradation assay. The assay was set up in homogeneous 384-well format with an 11-point dose response curve, with a top dose of 10 μM and each dose tested in quadruplicate. Cells were incubated with LC2 for 18 h and at the end of incubation, detection reagents containing the complementing EA fragment were added to each well for chemiluminescence quantitation. Shown in Figure 6A, LC2 induced a loss of signal (an indication of protein degradation) in KRAS(G12C) cells with a DC50 of 1.9 μM and a Dmax of 69%, close to the previously described value.[25]
(§2) The gRNAs (crRNA), HiFi Cas9 Nuclease V3, and ATTO 550 tracrRNA used in this study to generate ED-tagged KRAS cell lines were purchased from Integrated DNA Technologies (Coralville, IA). Double-stranded DNAs containing ED or ePL (enhanced ProLink) were purchased from Eurofins Genomics Blue Heron (Bothell, WA). […] The gRNA was first annealed with fluorescence-labeled (ATTO-550) tracrRNA in a 1:1 ratio to form an RNA duplex, followed by incubation with Cas9 nuclease to generate Cas9-gRNA ribonucleoprotein (RNP). […] At 16 h postelectroporation, cells with high fluorescence at 550 nm were sorted to enrich the genome-edited cell populations. […]

Assay [2] concerns the target T2, KRAS(WT) (Homo sapiens, UniProt P01116).
T2 construct: knocking in an ED fragment (and the relevant mutation in KRAS) into the KRAS locus by CRISPR technology; ED tag (ePL, enhanced ProLink); host or cells: A549 (SPRINTer A549 KRAS WT, homozygous CRISPR knock-in)
The assay is described as follows: targeted protein degradation assay (EFC). In kind it is cell-based. As to conditions: A549 ED-KRAS(WT) cells, 18 h, top dose 10 μM. Here is the method: as §1, §2

For assay [3], the target named is T3, KRAS(G12C) (Homo sapiens, UniProt P01116, G12C). Further details: made in house; host or cells: HEK293 (transient transfection, unpurified extract); method as in PMID 32875077, PMID 34715575. The conditions noted are these: Western blot, among three different cell lines; cited from earlier work.
Target sequence in this assay (P01116 1-164 G12C): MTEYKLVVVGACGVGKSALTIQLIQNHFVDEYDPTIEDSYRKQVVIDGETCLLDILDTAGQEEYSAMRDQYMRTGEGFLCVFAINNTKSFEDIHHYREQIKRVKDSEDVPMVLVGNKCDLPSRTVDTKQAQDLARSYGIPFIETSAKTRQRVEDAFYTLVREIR
In assay [4] the target is T3, KRAS(G12C). The assay is described as follows: targeted protein degradation assay (EFC). Also noted: knocking in an ED fragment (and the relevant mutation in KRAS) into the KRAS locus by CRISPR technology; ED tag (ePL, enhanced ProLink); host or cells: A549 (SPRINTer A549 KRAS G12C, homozygous CRISPR knock-in). In kind it is cell-based. The protocol:
as §1, §2
Target sequence in this assay (P01116 1-188 isoform P01116-2 G12C): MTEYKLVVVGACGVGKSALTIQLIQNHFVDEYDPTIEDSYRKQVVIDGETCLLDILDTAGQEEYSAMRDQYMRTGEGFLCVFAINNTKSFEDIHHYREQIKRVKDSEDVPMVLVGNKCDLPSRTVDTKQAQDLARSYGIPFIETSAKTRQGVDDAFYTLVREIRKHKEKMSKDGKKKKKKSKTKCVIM

Assay [5] deals with T3, KRAS(G12C). Kind of assay: pulse target engagement assay. The conditions noted are these: KRAS(G12C) cells, 1 or 5 h incubation, 3 min at 67 °C. The assay is classed as cell-based. Further details: knocking in an ED fragment (and the relevant mutation in KRAS) into the KRAS locus by CRISPR technology; ED tag (ePL, enhanced ProLink); host or cells: A549 (SPRINTer A549 KRAS G12C, homozygous CRISPR knock-in). The protocol:
(§3) Next, we explored the application of KRAS cell lines for a pulse target engagement (TE) assay to profile compounds or identify new ligands. The TE assay is based on the observation that the direct interaction between a compound and its cellular protein target increases the stability of the protein and reduces its turnover.[48],[49],[51] […] Therefore, in our pulse TE assay, cells are incubated with a compound and then subjected to an elevated temperature to induce protein denaturation. Compound binding protects the target protein from denaturation, and consequently preserves enzyme complementation activities with the cellular ED-tagged fusion protein, producing a robust chemiluminescent signal. In the absence of compound binding, the target protein forms denatured aggregates that leads to a loss of complementation ability and decreased chemiluminescent signal (Figure 7).
(§4) We next performed pulse TE assays with a panel of KRAS inhibitors on three KRAS cell lines. […] Cells were incubated with the compounds for 1 or 5 h, followed by a 3 min incubation at 67 °C.
(§5) The pulse target engagement assay was set up in a 96-well format with an 11-point dose response curve (triplicates/dose) and vehicle control. Cells were collected and diluted in complete medium that allowed for a cell seeding of 5000 cells in 40 μL per well in 96-well PCR plates (black, Thermo Fisher Scientific, Waltham, MA). […]
Target sequence in this assay (P01116 1-188 isoform P01116-2 G12C): as above

For assay [6], the target named is T1, KRAS(G12D). The assay is described as follows: pulse target engagement assay. The assay is classed as cell-based. As to conditions: KRAS(G12D) cells, 1 or 5 h incubation, 3 min at 67 °C. The protocol: as §3, §4, §5
Assay [7] addresses T2, KRAS(WT). Kind of assay: pulse target engagement assay. The assay is classed as cell-based. The conditions noted are these: KRAS(WT) cells, 1 or 5 h incubation, 3 min at 67 °C. Here is the method: as §3, §4, §5

SMILES strings stand for the structures. Entries after “also recorded” stand apart in the source; their conditions may differ. Like-named read-outs stand apart in the source and are kept apart here.

T2 sequence (P01116 1-188 isoform P01116-2): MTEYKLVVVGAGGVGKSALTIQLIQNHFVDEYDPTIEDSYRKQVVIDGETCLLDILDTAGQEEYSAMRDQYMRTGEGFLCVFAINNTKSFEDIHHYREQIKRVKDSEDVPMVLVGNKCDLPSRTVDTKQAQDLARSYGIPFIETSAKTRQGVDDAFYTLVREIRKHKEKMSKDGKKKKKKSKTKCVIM
T1 sequence (P01116 1-188 isoform P01116-2 G12D): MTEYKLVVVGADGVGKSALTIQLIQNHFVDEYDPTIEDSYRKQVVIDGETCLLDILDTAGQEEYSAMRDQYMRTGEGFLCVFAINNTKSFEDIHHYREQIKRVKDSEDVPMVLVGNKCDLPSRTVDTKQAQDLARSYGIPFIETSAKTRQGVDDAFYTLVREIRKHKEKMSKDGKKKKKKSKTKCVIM

On to `C=C(F)C(=O)N1CCN(c2nc(OC[C@@H]3CCCN3CCCOCCC(=O)N[C@H](C(=O)N3C[C@H](O)C[C@H]3C(=O)NCc3ccc(-c4scnc4C)cc3)C(C)(C)C)nc3c2CCN(c2cccc4cccc(Cl)c24)C3)C[C@@H]1CC#N` [LC2], for which the protein degradation entry at KRAS(G12D) [1] is recorded as “some degradation in KRAS(G12D) cells at high doses; also recorded: low levels of KRAS(G12D) degradation only at higher concentrations”; at KRAS(WT) [2], “sparing KRAS(WT)”. In addition, the DC50 is 250 to 760 nM on KRAS(G12C) [3] and 1900 nM on KRAS(G12C) [4] (A549 ED-KRAS(G12C) cells, 18 h incubation). Besides, the Dmax on KRAS(G12C) [3] is 75%–90%; on KRAS(G12C) [4] (A549) it was 69%.
With `C#Cc1c(F)ccc2cc(O)cc(-c3ncc4c(N5CC6CCC(C5)N6)nc(OC[C@@]56CCCN5C[C@H](F)C6)nc4c3F)c12` [MRTX1133], the “target engagement (affinity in words)” value at KRAS(G12C) [5] was “some interaction; also recorded: some binding to KRAS(G12C) and KRAS(WT) proteins at high concentration”; at KRAS(G12D) [6], “high selectivity; also recorded: high affinity”; at KRAS(WT) [7], “some interaction; also recorded: some binding to KRAS(G12C) and KRAS(WT) proteins at high concentration”.

The record behind these values is paper PMC11651172, “Suite of Biochemical and Cell-Based Assays for the Characterization of Kirsten Rat Sarcoma (KRAS) Inhibitors and Degraders” (ACS Pharmacology & Translational Science, 2024).
